Reference: patent publication US11274082B2, “Tead inhibitors and uses thereof” (Ikena Oncology, Inc., priority 2019, dated 2022)

How the values were obtained:
[1] = tested on: H226; test: Anti-proliferation assay in H226 cells; assay type: cell-based; details: Homo sapiens, NCI-H226; H226 cells; read-out: H226 EC50
Procedure: (§1) Certain compounds were tested in TEAD reporter assay, and in H226 and H28. A: EC50<0.1 uM; B: 0.1 uM≤EC50≤0.5 uM; C: EC50>0.5 uM.
Individual cell lines were grown in medium according to supplier instructions and seeded into 96-well plates at a density that ensured logarithmic growth over 72 hours. TEAD inhibitor compounds were administered to cells at a top concentration of 10 μm and subsequently a 10 point 3-fold serial dilution was conducted. After 72 hours, proliferation was quantified using Cell TITERGLO™ (Promega, Inc.) and compared to vehicle control. IC50 and EC50 values were generated using XLFit curve fitting software.

[2] = tested on: TEAD; test: TEAD reporter assay (Hippo Pathway TEAD Reporter - MCF7 cell line, luciferase); assay type: cell-based; details: Homo sapiens; TEAD Reporter - MCF7 cells; read-out: TEAD Reporter Assay EC50
Source text: TEAD inhibition can be assayed using Hippo Pathway TEAD Reporter—MCF7 Cell Line (BPS Bioscience, Catalog #: 60618).
The TEAD Reporter—MCF7 cell line contains the firefly luciferase gene under the control of TEAD responsive elements stably integrated into the human breast cancer cell line, MCF7. Inside the cells, basal unphosphorylated YAP/TAZ remains in the nucleus and induces the constitutive expression of luciferase reporter. The cell line is validated for the inhibition of the expression of luciferase reporter by the activators of the Hippo pathway.
• 1) Harvest TEAD Reporter—MCF7 cells from culture in growth medium and seed cells at a density of 35,000 cells per well into white clear-bottom 96-well microplate in 45 μl of assay medium. • 2) Incubate cells at 37° C. in a CO2 incubator for overnight. • 3) Dilute the activators (H2O2 or okadaic acid) stock in assay medium. Add 5 μl of diluted activators to the wells. The final concentration of DMSO in assay medium is 0.1%. • 4) Add 5 μl of assay medium with same concentration of DMSO without activator to control wells. • 5) Add 50 μl of assay medium with DMSO to cell-free control wells (for determining background luminescence). • 6) Set up each treatment in at least triplicate. • 7) Incubate cells at 37° C. in a CO2 incubator for 5-6 hours. • 8) Perform luciferase assay using the ONE-Step™ Luciferase Assay System following the protocol provided: Add 100 μl of ONE-Step™ Luciferase reagent per well and rock at room temperature for ˜15 minutes. Measure luminescence using a luminometer. • 9) Data Analysis: Obtain the background-subtracted luminescence by subtracting the average background luminescence (cell-free control wells) from the luminescence reading of all wells.
as §1

`CNS(=O)(=O)c1ccc(NCc2ccc(OC(F)(F)F)cc2)c(-c2cn(C)cn2)c1` [I-60, N-Methyl-3-(1-methyl-1H-imidazol-4-yl)-4-((4-(trifluoromethoxy)benzyl)amino)benzenesulfonamide] showed an EC50 [1] of 0.1 to 0.5 µM and an EC50 [2] of 0.1 to 0.5 µM.

For `CNS(=O)(=O)c1ccc(NCc2ccccc2)c(-c2nnc(C)o2)c1` [I-61, 4-(Benzylamino)-N-methyl-3-(5-methyl-1,3,4-oxadiazol-2-yl)benzenesulfonamide], the EC50 [1] was 0.1 to 0.5 µM and the EC50 [2] was greater than 0.5 µM.

`CNS(=O)(=O)c1ccc(Nc2cc(C(F)(F)F)ccn2)c(-c2nnc(C)o2)c1` [I-62, N-Methyl-3-(5-methyl-1,3,4-oxadiazol-2-yl)-4-[[4-(trifluoromethyl)-2-pyridyl]amino]benzenesulfonamide] gave an EC50 [1] of 0.1 to 0.5 µM and an EC50 [2] of 0.1 to 0.5 µM.

`CNS(=O)(=O)c1ccc(N[C@H](C)c2cccc(C(F)(F)F)c2)c(-c2cn(C)cn2)c1` [I-63, N-Methyl-3-(1-methylimidazol-4-yl)-4-[[(1R)-1-[3-(trifluoromethyl)phenyl]ethyl]amino]benzenesulfonamide] showed an EC50 [1] of 0.1 to 0.5 µM and an EC50 [2] of 0.1 to 0.5 µM.

`CNS(=O)(=O)c1ccc(NCc2ccc3c(c2)OCO3)c(-c2cn(C)cn2)c1` [I-64, 4-(1,3-Benzodioxol-5-ylmethylamino)-N-methyl-3-(1-methylimidazol-4-yl)benzenesulfonamide] showed an EC50 [1] of 0.1 to 0.5 µM and an EC50 [2] of 0.1 to 0.5 µM.

With `CCNS(=O)(=O)c1ccc(Nc2ccc(C(F)(F)F)cn2)c(-c2cn(C)cn2)c1` [I-65, N-ethyl-3-(1-methylimidazol-4-yl)-4-[[5-(trifluoromethyl)-2-pyridyl]amino]benzenesulfonamide] the EC50 [1] was less than 0.1 µM and the EC50 [2] was less than 0.1 µM.

With `CC(C)NS(=O)(=O)c1ccc(Nc2cc(C(F)(F)F)ccn2)c(-c2cn(C)cn2)c1` [I-66, N-Isopropyl-3-(1-methylimidazol-4-yl)-4-[[4-(trifluoromethyl)-2-pyridyl]amino]benzenesulfonamide] the EC50 [1] was 0.1 to 0.5 µM and the EC50 [2] was greater than 0.5 µM.

`CNS(=O)(=O)c1ccc(Nc2ccc(C(F)(F)F)cn2)c(-c2cn(C3CCC3)cn2)c1` [I-67, 3-(1-Cyclobutylimidazol-4-yl)-N-methyl-4-[[5-(trifluoromethyl)-2-pyridyl]amino]benzenesulfonamide] showed an EC50 [1] of less than 0.1 µM and an EC50 [2] of less than 0.1 µM.

Work on `CNS(=O)(=O)c1ccc(NCc2ccc(C(F)(F)F)cc2F)c(-c2cn(C)cn2)c1` [I-68, 4-[[2-Fluoro-4-(trifluoromethyl)phenyl]methylamino]-N-methyl-3-(1-methylimidazol-4-yl)benzenesulfonamide] yielded an EC50 [1] of less than 0.1 µM and an EC50 [2] of less than 0.1 µM.

For `CNS(=O)(=O)c1ccc(NCc2cccc(OC(F)(F)F)c2)c(-c2cn(C)cn2)c1` [I-69, A-Methyl-3-(1-methylimidazol-4-yl)-4-[[3-(trifluoromethoxy)phenyl]methylamino]benzenesulfonamide], the EC50 [1] was less than 0.1 µM and the EC50 [2] was 0.1 to 0.5 µM.

`CNS(=O)(=O)c1ccc(NCc2ccc(C(F)(F)F)cn2)c(-c2cn(C)cn2)c1` [I-70, N-Methyl-3-(1-methylimidazol-4-yl)-4-[[5-(trifluoromethyl)-2-pyridyl]methylamino]benzenesulfonamide] was tested, and the EC50 [1] was less than 0.1 µM and the EC50 [2] was 0.1 to 0.5 µM.

Work on `CNS(=O)(=O)c1ccc(Nc2ccc(C(F)(F)F)cn2)c(-c2cn(Cc3ccccc3)cn2)c1` [I-71, 3-(1-Benzylimidazol-4-yl)-N-methyl-4-[[5-(trifluoromethyl)-2-pyridyl]amino]benzenesulfonamide] yielded an EC50 [1] of 0.1 to 0.5 µM and an EC50 [2] of 0.1 to 0.5 µM.

In the case of `CNS(=O)(=O)c1ccc(NCc2ccc3scnc3c2)c(-c2cn(C)cn2)c1` [I-72, 4-(1,3-Benzothiazol-5-ylmethylamino)-N-methyl-3-(1-methylimidazol-4-yl)benzenesulfonamide], the EC50 [1] is reported as 0.1 to 0.5 µM and the EC50 [2] is reported as less than 0.1 µM.

With `CNS(=O)(=O)c1ccc(NCc2ccc3ncsc3c2)c(-c2cn(C)cn2)c1` [I-73, 4-(1,3-Benzothiazol-6-ylmethylamino)-N-methyl-3-(1-methylimidazol-4-yl)benzenesulfonamide] the EC50 [1] was 0.1 to 0.5 µM and the EC50 [2] was greater than 0.5 µM.

Compound `CNS(=O)(=O)c1ccc(NCc2ccccc2C(F)(F)F)c(-c2cn(C)cn2)c1` [I-74, N-Methyl-3-(1-methylimidazol-4-yl)-4-[[2-(trifluoromethyl)phenyl]methylamino]benzenesulfonamide] has an EC50 [1] of less than 0.1 µM and an EC50 [2] of less than 0.1 µM.

Compound `CNS(=O)(=O)c1ccc(Nc2ccc(C(F)(F)F)nc2)c(-c2cn(C)cn2)c1` [I-75, N-Methyl-3-(1-methylimidazol-4-yl)-4-[[6-(trifluoromethyl)-3-pyridyl]amino]benzenesulfonamide] has an EC50 [1] of less than 0.1 µM and an EC50 [2] of less than 0.1 µM.

With `CNS(=O)(=O)c1ccc(NCc2ccc(C(F)(F)F)nc2)c(-c2cn(C)cn2)c1` [I-76, N-Methyl-3-(1-methyl-1H-imidazol-4-yl)-4-(((6-(trifluoromethyl)pyridin-3-yl)methyl)amino)benzenesulfonamide] the EC50 [1] was 0.1 to 0.5 µM and the EC50 [2] was greater than 0.5 µM.

Work on `CNS(=O)(=O)c1ccc(Nc2ccc(C(F)(F)F)nn2)c(-c2cn(C)cn2)c1` [I-77, N-Methyl-3-(1-methylimidazol-4-yl)-4-[[6-(trifluoromethyl)pyridazin-3-yl]amino]benzenesulfonamide] yielded an EC50 [1] of 0.1 to 0.5 µM and an EC50 [2] greater than 0.5 µM.

`CNS(=O)(=O)c1ccc(Nc2ncc(C(F)(F)F)cn2)c(-c2cn(C)cn2)c1` [I-78, N-Methyl-3-(1-methylimidazol-4-yl)-4-[[5-(trifluoromethyl)pyrimidin-2-yl]amino]benzenesulfonamide] showed an EC50 [1] of less than 0.1 µM and an EC50 [2] of less than 0.1 µM.

In the case of `CNS(=O)(=O)c1ccc(Nc2ccc(C3CC3)cn2)c(-c2cn(C)cn2)c1` [I-79, 4-[(5-Cyclopropyl-2-pyridyl)amino]-N-methyl-3-(1-methylimidazol-4-yl)benzenesulfonamide], the EC50 [1] is reported as less than 0.1 µM and the EC50 [2] is reported as 0.1 to 0.5 µM.

Work on `CNS(=O)(=O)c1ccc(Nc2ccc(C(C)(C)C)cn2)c(-c2cn(C)cn2)c1` [I-80, 4-[(5-tert-Butyl-2-pyridyl)amino]-N-methyl-3-(1-methylimidazol-4-yl)benzenesulfonamide] yielded an EC50 [1] of less than 0.1 µM and an EC50 [2] of less than 0.1 µM.

In the case of `CNS(=O)(=O)c1ccc(Nc2ccc(C(F)(F)F)cn2)c(-c2cn(Cc3ccccc3F)cn2)c1` [I-81, 3-[1-[(2-Fluorophenyl)methyl]imidazol-4-yl]-N-methyl-4-[[5-(trifluoromethyl)-2-pyridyl]amino]benzenesulfonamide], the EC50 [1] is reported as less than 0.1 µM and the EC50 [2] is reported as less than 0.1 µM.

With `CNS(=O)(=O)c1ccc(Nc2ccc(C(F)(F)F)cc2)c(-c2cn(C)cn2)c1` [I-82, N-Methyl-3-(1-methyl-1H-imidazol-4-yl)-4-((4-(trifluoromethyl)phenyl)amino)benzenesulfonamide] the EC50 [1] was less than 0.1 µM and the EC50 [2] was less than 0.1 µM.

For `CNS(=O)(=O)c1ccc(N[C@@H](C)c2cccc(C(F)(F)F)c2)c(-c2cn(C)cn2)c1` [I-83, N-Methyl-3-(1-methylimidazol-4-yl)-4-[[(1S)-1-[3-(trifluoromethyl)phenyl]ethyl]amino]benzenesulfonamide], the EC50 [1] was less than 0.1 µM and the EC50 [2] was 0.1 to 0.5 µM.

With `CNS(=O)(=O)c1ccc(Nc2ccc(OC(F)(F)F)cn2)c(-c2cn(C)cn2)c1` [I-84, N-Methyl-3-(1-methylimidazol-4-yl)-4-[[5-(trifluoromethoxy)-2-pyridyl]amino]benzenesulfonamide] the EC50 [1] was less than 0.1 µM and the EC50 [2] was less than 0.1 µM.

`CNS(=O)(=O)c1ccc(Nc2ccc(C(F)(F)F)cn2)c(-c2cn(C(C)C)cn2)c1` [I-85, 3-(1-isopropylimidazol-4-yl)-N-methyl-4-[[5-(trifluoromethyl)-2-pyridyl]amino]benzenesulfonamide] was tested, and the EC50 [1] was less than 0.1 µM and the EC50 [2] was less than 0.1 µM.

Compound `CNS(=O)(=O)c1ccc(Nc2ccc(C#N)cn2)c(-c2cn(C)cn2)c1` [I-86, 4-[(5-Cyano-2-pyridyl)amino]-N-methyl-3-(1-methylimidazol-4-yl)benzenesulfonamide] has an EC50 [1] of 0.1 to 0.5 µM and an EC50 [2] greater than 0.5 µM.
